Results published in ChEMBL document CHEMBL1201862, “PubChem BioAssay data set” (2004).
The source made the active and inactive calls.

What was measured:
Format in all cases: functional
[1] = biological target: T1, Short transient receptor potential channel 4 (Mus musculus, UniProt Q9QUQ5); assay: block of DAMGO-driven TRPC4 calcium entry – cell-based, HEK293 TRPC4/mu-opioid, Fluo-4 calcium, dose response (AID 434942);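 also: potency of inhibitors blocking the TRPC4 calcium response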
T1 sequence (Q9QUQ5 whole entry): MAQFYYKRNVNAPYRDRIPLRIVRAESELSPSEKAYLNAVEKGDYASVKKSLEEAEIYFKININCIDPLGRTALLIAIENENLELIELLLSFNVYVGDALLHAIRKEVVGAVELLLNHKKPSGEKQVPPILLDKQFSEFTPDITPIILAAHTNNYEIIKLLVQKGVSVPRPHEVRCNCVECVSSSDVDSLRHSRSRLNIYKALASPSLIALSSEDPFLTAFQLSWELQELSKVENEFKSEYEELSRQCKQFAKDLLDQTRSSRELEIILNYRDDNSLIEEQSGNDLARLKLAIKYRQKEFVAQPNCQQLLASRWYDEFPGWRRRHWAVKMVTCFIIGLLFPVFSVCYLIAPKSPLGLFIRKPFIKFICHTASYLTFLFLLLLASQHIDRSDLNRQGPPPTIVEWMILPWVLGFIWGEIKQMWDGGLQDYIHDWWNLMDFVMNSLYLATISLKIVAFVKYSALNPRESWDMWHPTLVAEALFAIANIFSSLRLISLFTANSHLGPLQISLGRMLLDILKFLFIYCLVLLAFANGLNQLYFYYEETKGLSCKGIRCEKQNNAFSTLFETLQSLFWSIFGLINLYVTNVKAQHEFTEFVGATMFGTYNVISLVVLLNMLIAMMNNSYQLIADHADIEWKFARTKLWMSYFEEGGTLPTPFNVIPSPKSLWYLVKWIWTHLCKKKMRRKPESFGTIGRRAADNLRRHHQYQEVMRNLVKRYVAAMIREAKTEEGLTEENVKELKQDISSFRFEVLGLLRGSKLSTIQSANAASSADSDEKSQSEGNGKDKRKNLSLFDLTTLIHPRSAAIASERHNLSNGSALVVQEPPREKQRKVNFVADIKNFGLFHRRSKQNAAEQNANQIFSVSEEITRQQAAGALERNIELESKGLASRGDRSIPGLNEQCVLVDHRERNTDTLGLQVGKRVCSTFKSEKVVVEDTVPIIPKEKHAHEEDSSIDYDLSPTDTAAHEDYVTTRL

[2] = biological target: T2, DNA repair and recombination protein RAD54-like (Homo sapiens, UniProt Q92698); assay: RAD54 Holliday junction migration blockers – biochemical, fluorescence, cherry-picked samples, dose series, confirmation (AID 651657)
T2 sequence (Q92698 whole entry): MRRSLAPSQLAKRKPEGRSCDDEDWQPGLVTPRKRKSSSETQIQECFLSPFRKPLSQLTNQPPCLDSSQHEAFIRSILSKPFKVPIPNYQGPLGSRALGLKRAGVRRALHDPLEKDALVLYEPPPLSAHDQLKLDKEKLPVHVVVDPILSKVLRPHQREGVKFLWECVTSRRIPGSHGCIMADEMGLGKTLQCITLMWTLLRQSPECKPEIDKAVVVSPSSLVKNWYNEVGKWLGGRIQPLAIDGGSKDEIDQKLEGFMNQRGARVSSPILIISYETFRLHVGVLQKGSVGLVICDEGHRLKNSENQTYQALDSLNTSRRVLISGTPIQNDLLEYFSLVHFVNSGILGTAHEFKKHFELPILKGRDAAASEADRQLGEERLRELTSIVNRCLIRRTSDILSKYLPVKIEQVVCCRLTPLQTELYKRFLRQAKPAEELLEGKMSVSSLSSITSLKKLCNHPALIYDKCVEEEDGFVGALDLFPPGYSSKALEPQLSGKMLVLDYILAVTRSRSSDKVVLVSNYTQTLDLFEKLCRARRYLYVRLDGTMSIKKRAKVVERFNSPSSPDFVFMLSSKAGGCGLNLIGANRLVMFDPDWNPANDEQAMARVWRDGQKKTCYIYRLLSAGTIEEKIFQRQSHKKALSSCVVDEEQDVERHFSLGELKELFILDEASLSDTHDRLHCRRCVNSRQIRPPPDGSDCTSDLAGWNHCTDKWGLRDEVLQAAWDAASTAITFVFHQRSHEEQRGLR

[3] = biological target: T3, Polyadenylate-binding protein 1 (Homo sapiens, UniProt P11940); assay: MLLE binding blockers, Cy5 peptide tracer – biochemical, fluorescence polarization, Cy5-PAM2 peptide, secondary, miRNA deadenylation inhibitor project, dose response (AID 602260); settings: read-out: IC50_Mean
T3 sequence (P11940 whole entry, the tested form may be a part): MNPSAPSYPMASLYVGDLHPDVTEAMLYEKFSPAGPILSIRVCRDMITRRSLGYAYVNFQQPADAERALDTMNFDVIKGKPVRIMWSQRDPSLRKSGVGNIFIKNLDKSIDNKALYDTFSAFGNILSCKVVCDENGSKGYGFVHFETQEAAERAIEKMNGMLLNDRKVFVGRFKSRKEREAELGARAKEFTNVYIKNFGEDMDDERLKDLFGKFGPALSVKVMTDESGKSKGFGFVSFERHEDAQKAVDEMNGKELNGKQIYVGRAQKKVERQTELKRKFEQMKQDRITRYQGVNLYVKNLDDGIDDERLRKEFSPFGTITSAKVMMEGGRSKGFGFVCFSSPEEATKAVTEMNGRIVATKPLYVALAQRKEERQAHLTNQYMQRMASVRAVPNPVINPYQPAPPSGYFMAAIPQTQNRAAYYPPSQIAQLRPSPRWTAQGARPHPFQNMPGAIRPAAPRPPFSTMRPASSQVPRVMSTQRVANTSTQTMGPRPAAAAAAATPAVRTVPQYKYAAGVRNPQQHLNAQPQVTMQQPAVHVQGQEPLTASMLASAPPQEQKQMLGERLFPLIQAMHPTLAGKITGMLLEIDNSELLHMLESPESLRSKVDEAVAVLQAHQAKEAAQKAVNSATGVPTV

[4] = biological target: T3, Polyadenylate-binding protein 1; assay: MLLE domain peptide-binding blockers, IC50 – biochemical, fluorescence polarization, FITC-PAM2 peptide, dose response (AID 602259); settings: read-out: IC50_Mean

CCn1cc(CN2CCCC(CO)(Cc3cccc(Cl)c3)C2)cn1 (stereo not given)
EC50 [1]: 5.96 µM (active)

Cc1ccc(C(=O)NC(=S)Nc2c(C)ccc3nsnc23)cc1
EC50 [1]: 5.96 µM (active)

Cc1ccc(C)c2nc3sc(C(=O)O)cc3cc12
EC50 [1]: 5.31 µM (active)

Cc1c(O)c(CN(C)C)cc2c1oc(=O)c1ccccc12
AC50 [2]: 35.5 µM (active)

CCC(O)C1CCN(Cc2cn(-c3ccc(OC)cc3)nc2-c2cccc(F)c2)CC1 (stereo not given)
EC50 [1]: 10.6 µM (active)

CCCCN(C)CCNC(=O)c1cc2cc3ccc(OC)cc3nc2o1
AC50 [2]: 50.9 µM (active)

CCOC(=O)c1cc(-c2ccc(OC)cc2)nc2c1c(C)nn2CCC(N)=S
IC50 [3]: > 66 µM (inactive)
IC50 [4]: > 66 µM (inactive)

CCC(C)[C@H](NC(=O)C1CC(=O)N(c2ccc3c(c2)OCO3)C1)C(=O)NC1CCCCC1 (stereo not given in full)
IC50 [3]: > 66 µM (inactive)
IC50 [4]: 54.9 µM (inactive)
